The source of these data is patent US20070190145A1, “DRUG DELIVERY SYSTEMS COMPRISING WEAKLY BASIC SELECTIVE SEROTONIN 5-HT3 BLOCKING AGENT AND ORGANIC ACIDS” (EURAND, INC., priority 2006, published 2007).

Data set [1] in a line: PK modeling (WinNonlin 1-compartment fit, Stella simulation) of 8 mg ondansetron hydrochloride IR tablet plasma data. The protocol: In order to assess the type of in vitro release profile needed to achieve a once-daily plasma concentration profile, a modeling exercise was performed using the pharmacokinetic parameters for ondansetron hydrochloride reported in “Ondansetron Absorption in Adults: Effect of Dosage Form, Food, and Antacids” in Journal of Pharmaceutical Sciences Vol. (1994) by Bozigian et al. Mean plasma concentrations achieved in 24 healthy, adult male volunteers, who received a single 8 mg ondansetron hydrochloride IR tablet in the fasted state, were used using the software program, WinNonlin™ Standard Version 2.1 to fit a 1-compartment first order model with a lag-time assuming first order elimination kinetics.
The primary parameters were then input into another software, Stella Version 6.01 using a previously established model with slight modifications. Different in vitro release profiles were generated, and from target once-daily release profiles, desired in vitro release (medium, target and fast) profiles were generated by deconvolution.

Data set [2] in a line: Solubilities of weakly basic drugs in organic acid buffers.
The conditions of data set [3]: in vivo; cited from earlier work.
The nature of the next data set: pH-dependent solubility. The class given is physicochemical. The source says: Although carvedilol's solubility is similarly pH-dependent and varying, it is not obvious from FIG. 1 as it rapidly undergoes in situ salt formation with the buffering agent such as citric, acetic, and hydrochloric acids and consequently, the observed solubility is that of the salt formed in-situ.

Where [4] appears, read: single 8 mg IR tablet, fasted, 1-compartment model fit.
Where [5] appears, read: single 8 mg IR tablet, fasted, secondary parameter.

Values after ≈ are worked out from the molar mass of the structure shown. Read-outs that look alike come from different tables or passages of the source.

As to `COc1ccccc1OCCNCC(O)COc1cccc2[nH]c3ccccc3c12` (racemic) [Carvedilol], the “Solubility (mg/mL) of Carvedilol in Tartaric Acid” value by setting is: (pH 2.12) 2.51 mg/mL; (pH 2.28) 1.36 mg/mL; (pH 3.64) 0.121 mg/mL; (pH 5.46) 0.105 mg/mL; (pH 5.9) 0.028 mg/mL.
`Cc1nccn1CC1CCc2c(c3ccccc3n2C)C1=O.Cl.O.O` (racemic) [Ondansetron Hydrochloride, (±) 1,2,3,9-tetrahydro-9-methyl-3-[(2-methyl-1H-imidazole-1-yl)methyl]-4H-carbazol-4-one monohydrochloride dihydrate]: the t1/2 in data set [1] (male, human, plasma) was 3.65 h. The compound further came in with a Vd in data set [1] (single 8 mg IR tablet, fasted, 24 healthy adult male volunteers, 1-compartment first order model fit) of 238.26. In data set [1] (setting [4]), this compound had a Ka of 1.49 per hour. The Ke in data set [1] (setting [4]) is listed as 0.19 per hr. This compound also gave a Tlag in data set [1] (setting [4]) of 0.41 h. The compound further yielded an AUC in data set [1] (setting [5]) of 170 ng·h/mL. Moreover, the Cl in data set [1] (setting [5]) is 46.06 L/h. The Cm in data set [1] (setting [5]) is on record as 0.0248 mg/L. In addition, the Tmax in data set [1] (setting [5]) was 1.98 h. Also, the solubility in data set [2] (pH 2.01, aqueous buffer, Solubility of Ondansetron Hydrochloride, fumaric acid 5 mg/mL, start pH 2.13, end pH 2.01) was 26900 µg/mL; in data set [2] (pH 2.14, aqueous buffer, Solubility of Ondansetron Hydrochloride, fumaric acid 2.5 mg/mL, start pH 2.26, end pH 2.14) it was 27000 µg/mL; in data set [2] (pH 2.4, aqueous buffer, Solubility of Ondansetron Hydrochloride, fumaric acid 1 mg/mL, start pH 2.48, end pH 2.40), 26100 µg/mL; in data set [2] (pH 2.75, aqueous buffer, Solubility of Ondansetron Hydrochloride, fumaric acid 0.25 mg/mL, start pH 2.79, end pH 2.75), 26200 µg/mL; in data set [2] (pH 3.49, aqueous buffer, Solubility of Ondansetron Hydrochloride, fumaric acid 0.05 mg/mL, start pH 3.19, end pH 3.49), 26000 µg/mL; in data set [2] (pH 3.49, aqueous buffer, solubility, buffer containing only 0.05 mg/mL of fumaric acid, unchanged up to 5 mg/mL), around 26000 µg/mL. The solubility is 26100 µg/mL in data set [2] (pH 4.05, aqueous buffer, Solubility of Ondansetron Hydrochloride, fumaric acid 0.01 mg/mL, start pH 3.64, end pH 4.05); 26100 µg/mL in data set [2] (pH 4.33, aqueous buffer, Solubility of Ondansetron Hydrochloride, fumaric acid 0.0025 mg/mL, start pH 4.15, end pH 4.33); around 50 µg/mL in the data set “pH-dependent solubility” (aqueous buffer, at pH 6.8). Also, the elimination half-life result in data set [3] is on record as “approximately 3.8±1 hrs”. The “ratio of optimal highest dose (mg) to the solubility (mg/mL) at pH 6.8” value in “pH-dependent solubility” (optimal highest dose 16 or 24 mg, pH 6.8) is reported as 320.
Regarding `O=C1CN=C(c2ccccc2Cl)c2cc([N+](=O)[O-])ccc2N1` [Clonazepam], in data set [2] (Group C actives), the “solubility enhancement by organic acid” value is listed as “less than 3 fold”. Moreover, the solubility in data set [2] (pH 2.3, aqueous buffer, solubility, fumaric acid buffer at pH 2.3 (higher acid concentration)) is around 11.6 µg/mL (≈ 36.7 µM); in data set [2] (pH 3.2, aqueous buffer, Solubility (mg/mL) of Clonazepam in Fumaric Acid, pH of buffer 3.2) it was 9.6 µg/mL (≈ 30.4 µM); in data set [2] (pH 3.7, aqueous buffer, Solubility (mg/mL) of Clonazepam in Fumaric Acid, pH of buffer 3.7) it was 9.8 µg/mL (≈ 31 µM); in data set [2] (pH 4.8, aqueous buffer, Solubility (mg/mL) of Clonazepam in Fumaric Acid, pH of buffer 4.8) it was 9.5 µg/mL (≈ 30.1 µM); in data set [2] (pH 5.5, aqueous buffer, Solubility (mg/mL) of Clonazepam in Fumaric Acid, pH of buffer 5.5) it was 9.3 µg/mL (≈ 29.5 µM); in data set [2] (pH 6.2, aqueous buffer, Solubility (mg/mL) of Clonazepam in Fumaric Acid, pH of buffer 6.2), 7.2 µg/mL (≈ 22.8 µM). In addition, the solubility in data set [2] (pH 6.8, aqueous buffer, Solubility (mg/mL) of Clonazepam in Fumaric Acid, pH of buffer 6.8) was 6.9 µg/mL (≈ 21.9 µM); in data set [2] (pH 6.8, aqueous buffer, solubility, fumaric acid buffer at pH 6.8 (lower acid concentration)), around 6.9 µg/mL (≈ 21.9 µM). The “Solubility (mg/mL) of Clonazepam in Fumaric Acid” value in data set [2] (pH of buffer 2.3) turned out to be 0.0116 mg/mL; in data set [2] (pH of buffer 2.8) it was 0.0103 mg/mL.
`OCCN(CCO)c1nc(N2CCCCC2)c2nc(N(CCO)CCO)nc(N3CCCCC3)c2n1` [Dipyridamole]: the solubility in “physchem” (pH 2.98, aqueous buffer) was 6240 µg/mL (≈ 12400 µM); in the data set “physchem” (pH 3.42, aqueous buffer) it was 1800 µg/mL (≈ 3570 µM); in “physchem” (pH 3.68, aqueous buffer), 930 µg/mL (≈ 1840 µM); in the data set “physchem” (pH 3.88, aqueous buffer) it was 650 µg/mL (≈ 1290 µM); in “physchem” (pH 4.33, aqueous buffer), 270 µg/mL (≈ 535 µM); in “physchem” (pH 4.71, aqueous buffer) it was 130 µg/mL (≈ 258 µM). Besides, the solubility in the data set “physchem” (pH 6.28, aqueous buffer) is 6 µg/mL (≈ 11.9 µM); in “pH-dependent solubility” (aqueous buffer, at pH 6.8) it was 30 µg/mL (≈ 59.4 µM); in the data set “pH-dependent solubility” (simulated gastric fluid, in 0.1N HCl), around 1000 µg/mL (≈ 1980 µM).
Take `Nc1nnc(-c2cccc(Cl)c2Cl)c(N)n1` [Lamotrigine]: the solubility in “physchem” (pH 2.43, aqueous buffer) is 4480 µg/mL (≈ 17500 µM); in the data set “physchem” (pH 3.33, aqueous buffer) it was 1770 µg/mL (≈ 6910 µM); in “physchem” (pH 4.36, aqueous buffer), 1610 µg/mL (≈ 6290 µM); in “physchem” (pH 4.97, aqueous buffer), 488 µg/mL (≈ 1910 µM); in “physchem” (pH 5.66, aqueous buffer), 226 µg/mL (≈ 882 µM); in the data set “physchem” (pH 5.85, aqueous buffer), 197 µg/mL (≈ 769 µM). In addition, the solubility in the data set “physchem” (pH 6.5, aqueous buffer) was determined as 161 µg/mL (≈ 629 µM).

Broadly, the AUC is concentration integrated over time. Read a high AUC as high exposure. One may read the Tmax as the time at which the peak concentration occurs. Broadly, the solubility is the concentration that dissolves in the medium under given conditions.
